Data set [1] can be described thus: Cmax in Nocardia brasiliensis HUJEG-1 infected BALB/c mouse at 25 mg/kg, sc every 8 hrs by HPLC. The format is ADME, organism-based. To be noted: in vivo. More on the design: dose 25 mg/kg, route subcutaneous.
The test system of data set [2] is Nocardia brasiliensis. The experiment in a line: Antimicrobial activity against Nocardia brasiliensis HUJEG-1 by broth microdilution method. The format is functional.
The nature of data set [3]: Drug level in human plasma at 400 mg/day after 8 hrs. The format is ADME, cell-free. The conditions noted are these: read-out: Drug uptake.

≈ marks a conversion by molar mass, not a printed value. A value given as a limit tells only on which side of the number the result lay.

A word on the Cmax: it is the maximum level reached in the sampled fluid or tissue. Compound `O=C(O)c1cn(C2CC2)c2cc(N3CCNCC3)c(F)cc2c1=O` [CIPROFLOXACIN] showed a Cmax in data set [1] of 2250 ng/mL.
As a reminder, the MIC is the least concentration at which growth counts as inhibited. `COc1c(N2C[C@@H]3CCCN[C@@H]3C2)c(F)cc2c(=O)c(C(=O)O)cn(C3CC3)c12` [MOXIFLOXACIN]: in data set [2], the minimal inhibitory concentration (MIC) stood at 0.25 µg/mL (≈ 0.623 µM). Further, in data set [3], the concentration at 8 h was above 1000 ng/mL. In data set [1], the highest level (Cmax) was 4300 ng/mL.

(Values after ChEMBL document CHEMBL1629568 (Antimicrob Agents Chemother, 2009).)
